In ChEMBL document CHEMBL1177689, “Structural characteristics of green tea catechins for formation of protein carbonyl in human serum albumin” (Bioorg Med Chem, 2010):

Columns and labels:
Albumin = Albumin (Homo sapiens, UniProt P02768); assay: Binding affinity to human serum albumin in 100 mM phosphate buffer at pH 7.4 assessed as formation of biotin-LC-hydrazide labeled protein carbonyls at 100 uM pretreated 60 mins before biotin-LC-hydrazide challenge measured after 60 mins by SDS-PAGE/Western blotting; format: ADME; conditions: isolated protein, pH 7.4, 1 h
Sequence of Albumin (P02768 whole entry): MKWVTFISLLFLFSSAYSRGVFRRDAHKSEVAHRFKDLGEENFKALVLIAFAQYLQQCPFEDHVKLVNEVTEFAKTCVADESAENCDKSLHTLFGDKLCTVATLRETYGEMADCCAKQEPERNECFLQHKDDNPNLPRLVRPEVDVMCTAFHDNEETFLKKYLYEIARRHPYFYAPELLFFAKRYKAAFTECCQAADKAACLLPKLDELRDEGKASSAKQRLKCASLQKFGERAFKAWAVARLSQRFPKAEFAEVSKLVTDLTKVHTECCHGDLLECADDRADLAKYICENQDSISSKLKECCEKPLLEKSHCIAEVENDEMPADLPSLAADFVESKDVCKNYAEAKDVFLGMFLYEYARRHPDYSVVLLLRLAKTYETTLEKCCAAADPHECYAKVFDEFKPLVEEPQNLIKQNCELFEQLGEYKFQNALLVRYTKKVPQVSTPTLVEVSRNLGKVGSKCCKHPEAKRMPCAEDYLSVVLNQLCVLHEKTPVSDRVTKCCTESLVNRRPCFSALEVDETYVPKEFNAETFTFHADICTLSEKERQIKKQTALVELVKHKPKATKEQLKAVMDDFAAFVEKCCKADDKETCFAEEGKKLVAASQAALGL

[1] = Chemical stability in 100 mM phosphate buffer at pH 7.4 at 100 uM after 60 mins by HPLC analysis; format: physicochemical; conditions: pH 7.4, 1 h

| Activity (Albumin) | Stability [1] | Compound |
| --- | --- | --- |
| Active | Stable | COc1c(O)cc([C@H]2Oc3cc(O)cc(O)c3C[C@H]2OC(=O)c2cc(O)c(O)c(O)c2)cc1O |
| Not Active | – | O=C(O)c1cc(O)cc(O)c1 [3,5-DIHYDROXYBENZOIC ACID] |
| Active | Stable | Oc1cc(O)c2c(c1)O[C@H](c1ccc(O)c(O)c1)[C@H](O)C2 [(-)-EPICATECHIN] |
| Active | – | Oc1cccc(O)c1O [PYROGALLOL] |

Further lines, the molecule ahead of its results:

| Compound | Activity (Albumin) | Stability [1] |
| --- | --- | --- |
| COc1c(O)cc(C(=O)O[C@@H]2Cc3c(O)cc(O)cc3O[C@@H]2c2cc(O)c(O)c(O)c2)cc1O | Active | – |
| COc1cc(C(=O)O[C@@H]2Cc3c(O)cc(O)cc3O[C@@H]2c2cc(O)c(O)c(O)c2)cc(O)c1O | Active | Unstable |
| O=C(O)c1cccc(O)c1O [2,3-DIHYDROXYBENZOIC ACID] | Not Active | – |
| O=C(O[C@@H]1Cc2c(O)cc(O)cc2O[C@@H]1c1ccc(O)c(O)c1)c1cc(O)c(O)c(O)c1 [EPICATECHIN GALLATE] | Active | Stable |
| Oc1cc(O)c2c(c1)O[C@H](c1cc(O)c(O)c(O)c1)[C@H](O)C2 [EPIGALLOCATECHIN] | Active | Unstable |
| O=C(O[C@@H]1Cc2c(O)cc(O)cc2O[C@@H]1c1cc(O)c(O)c(O)c1)c1cc(O)c(O)c(O)c1 [EPIGALOCATECHIN GALLATE] | Active | Unstable |
| COC(=O)c1cc(O)c(O)c(O)c1 [GALLIC ACID METHYL ESTER] | Not Active | – |
| O=C(O)c1ccc(O)c(O)c1 [PROTOCATECHUIC ACID] | Not Active | – |
